According to patent US10976312B2, “Compositions and methods for capture of cellular targets of bioactive agents” (Promega Corporation, priority 2012, dated 2021):
“And” between values parts separate entries of the source, which are not always exact repeats. Equal entries are not always repeated.

Legend:
[1] = target: T1, NANOLUC-p38 alpha fusion protein (Homo sapiens, UniProt Q16539); assay: Pull-down of NANOLUC-p38 alpha fusion from HEK293 cell lysates (Example 5); type: binding; conditions: 1 μM conjugate, HEK293 cell lysate
T1 construct: expressed in transfected cells; host or cells: HEK293
T1 sequence (Q16539 whole entry, the tested form may be a part): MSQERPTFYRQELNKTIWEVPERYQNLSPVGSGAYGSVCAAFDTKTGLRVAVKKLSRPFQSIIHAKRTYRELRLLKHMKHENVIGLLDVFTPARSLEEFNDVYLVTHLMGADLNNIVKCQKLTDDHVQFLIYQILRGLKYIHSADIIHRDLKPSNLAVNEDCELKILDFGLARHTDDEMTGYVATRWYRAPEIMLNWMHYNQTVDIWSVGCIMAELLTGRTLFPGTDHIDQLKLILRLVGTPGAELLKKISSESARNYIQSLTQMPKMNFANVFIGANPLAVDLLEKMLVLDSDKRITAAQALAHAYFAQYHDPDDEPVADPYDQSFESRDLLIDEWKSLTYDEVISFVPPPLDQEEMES
Protocol: In this example, BIRB-chloroalkane conjugate (PBI-4834) and BIRB chloroalkane conjugate containing a cleavable linker (PBI-5131) were utilized to pull-down a NANOLUC-p38 alpha fusion protein from HEK293 cell lysates. Lysate of cells expressing NANOLUC-p38 fusion were incubated with 1 μM PBI-4834 or PBI-5131 (final concentration) while control lysates were not treated with the conjugated drugs. Following equilibration binding for 2 h, the lysates were transferred to wells of a 96-well plate containing 0.5 μl settled paramagnetic HALOTAG protein beads and incubated with shaking for 45 min. Following binding the unbound fraction was removed, the HALOTAG protein paramagnetic beads were washed 3×, and the captured NANLUC-p38 alpha fusion specifically released from the beads by one of two methods: • 1. 150 μM unconjugated BIRB796 was used to compete for binding with the conjugated BIRB796 on the NANOLUC-p38 alpha fusion for 60 min. • 2. The NANOLUC-p38 alpha fusion was rapidly released through 10 min chemical cleavage of the chloroalkane linker with 10 mM of sodium hydrosulfite (PBI-5131 is a chloroalkane cleavable linker).

[2] = target: T2, NANOLUC-p38 fusion protein (Homo sapiens, UniProt Q16539); assay: HALOTAG dimer / HALOLINK plate capture of NANOLUC-p38 from cell lysates (Example 2); type: binding; conditions: cells treated with drug, listed as BIRB-chloroalkane
T2 construct: expressed in transfected cells
T2 sequence (Q16539 whole entry, the tested form may be a part): as above
Protocol: Different amounts of a HALOTAG protein dimer (dimer of SEQ ID NO: 1) were added to cell lysates expressing a NANOLUC-p38 fusion protein (e.g., reporter/cellular-target fusion) which have or have not been treated with BIRB-chloroalkane (e.g., bioactive-agent/capture-ligand conjugate) as shown in Table 1. After 15 minute incubation, the samples were placed into wells of white, 96-well polystyrene plates activated with HALOTAG ligand (HALOLINK plates; Promega Corp.) and further incubated for 45 minutes. The wells were then washed PBS+0.05% Tween-20 (PBST). Then, 50 ul PBS followed by 50 ul of NANOGLO luciferase detection reagent was added to the wells, and luminescence measured.
Table 2 indicates differences in luminescence in samples with and without HALOTAG dimer (e.g., dimer of SEQ ID NO: 1) that indicate specific pull-down of the NANOLUC-p38 fusion protein.

p38 alpha = target: T3, p38 alpha (Homo sapiens, UniProt Q16539); assay: Endogenous target pull-down from HEK293 cells, western blot and mass spec (Example 8); type: cell-based; conditions: 10 uM conjugate, listed as BIRB-CA
T3 construct: isolate, e.g., pull-down, endogenous targets from cells; endogenous in cells; host or cells: HEK293
T3 sequence (Q16539 whole entry): as the sequence (Q16539 whole entry, the tested form may be a part) above
Protocol: HEK293 cells were plated in a 6 well plate (2.5×10^5 cells). 48 hours post plating, a final concentration of 10 uM of BIRB-chloroalkane (PBI-4834) was added to 2 wells while control cells were not treated with the drug conjugate. Following equilibrium binding for 2 h, the media was removed, and the cells were quickly washed with PBS and lysed in detergent-based lysis buffer for 10 min. Cell lysates were then transferred to an Eppendorf® tube containing 12.5 ul of settled paramagnetic HALOTAG protein beads and incubated with shaking for 15 min. Following binding, the unbound fraction was removed, the HALOTAG protein paramagnetic beads washed 3×, and the captured targets specifically released from the beads by competition with 150 μM unconjugated BIRB796 for 60 min. The released targets were subjected to mass spec analysis as well as western blot analysis using an anti-p38 alpha antibody (Abcam).

[3] = target: T1, NANOLUC-p38 alpha fusion protein; assay: Pull-down of NANOLUC-p38 alpha fusion from living HEK293 cells onto HALOTAG protein beads (Example 3); type: cell-based
Protocol: HEK293 cells in wells of a 96-well plate were transfected using PEI with plasmid DNA encoding NANOLUC-p38 fusion. Twenty-four hours post-transfection, cells were incubated with a final concentration of 10 μM PBI-4834 while control cells were not treated with the conjugated drug. Following equilibrium binding of 2 hours, the media was removed, cells were quickly washed with PBS and lysed in a detergent-based lysis buffer for 10 minutes. The cell lysates were then transferred to wells of a 96-well plate which contained 0.5 μl settled paramagnetic HALOTAG protein beads (Promega Corp.) and incubated with shaking for 15-45 minutes. Following binding, the unbound fraction was removed and the HALOTAG protein paramagnetic beads were washed. 150 uM unconjugated BIRB796 was then added and the captured NANOLUC-p38 alpha fusion was specifically released from the beads by competition with the unconjugated BIRB796 for 60 minutes. The released NANOLUC-p38 alpha fusion protein (+PBI-4834) and control (−PBI4834) was detected using NANOGLO luciferase reagent (Promega Corp.).

For `CC(C)(C)c1cc(NC(=O)Nc2ccccc2)n(-c2cccc(CNC(=O)CNC(=O)OCCOCCOCCOC(=O)NCCOCCOCCCCCCCl)c2)n1` [PBI-4834], the “pull-down efficiency of NANOLUC-p38 alpha” value [1] was “significantly higher compared to PBI-5131”, the “luminescence (captured NANOLUC-p38)” value ([2]; 2 ug/well HALOTAG dimer) was 236900 and 397958 and 431167 and the “luminescence (captured NANOLUC-p38)” value ([2]; 6 ug/well HALOTAG dimer) was 401205 and 538956 and 596504. For the same compound, the “luminescence (captured NANOLUC-p38)” value ([2]; 8 ug/well HALOTAG dimer) was 395510 and 526903 and 610628, the “luminescence (captured NANOLUC-p38)” value ([2]; No HALOTAG dimer) was 278085 and 275690 and 443682 and the “pull-down of endogenous p38 alpha” value (p38 alpha) was “specific pull down of p38”. The “expressed fusion specifically captured to the beads” value ([3]; 10 μM conjugate, HEK293 cells, HALOTAG protein beads) was 1% and the “signal over background of capture” value ([3]; within 15 minutes of capture on HALOTAG protein beads) was “high signal over background”.
